Source: patent US20200405697A1, “Antitumor Agent” (Taiho Pharmaceutical Co., Ltd, priority 2017, published 2020)

Molecular target: T1, human RNR (histidine tagged human M1 and human M2 proteins) (Homo sapiens, UniProt P23921)
T1 construct: made in house; host or cells: Escherichia coli
T1 sequence (P23921 1-792): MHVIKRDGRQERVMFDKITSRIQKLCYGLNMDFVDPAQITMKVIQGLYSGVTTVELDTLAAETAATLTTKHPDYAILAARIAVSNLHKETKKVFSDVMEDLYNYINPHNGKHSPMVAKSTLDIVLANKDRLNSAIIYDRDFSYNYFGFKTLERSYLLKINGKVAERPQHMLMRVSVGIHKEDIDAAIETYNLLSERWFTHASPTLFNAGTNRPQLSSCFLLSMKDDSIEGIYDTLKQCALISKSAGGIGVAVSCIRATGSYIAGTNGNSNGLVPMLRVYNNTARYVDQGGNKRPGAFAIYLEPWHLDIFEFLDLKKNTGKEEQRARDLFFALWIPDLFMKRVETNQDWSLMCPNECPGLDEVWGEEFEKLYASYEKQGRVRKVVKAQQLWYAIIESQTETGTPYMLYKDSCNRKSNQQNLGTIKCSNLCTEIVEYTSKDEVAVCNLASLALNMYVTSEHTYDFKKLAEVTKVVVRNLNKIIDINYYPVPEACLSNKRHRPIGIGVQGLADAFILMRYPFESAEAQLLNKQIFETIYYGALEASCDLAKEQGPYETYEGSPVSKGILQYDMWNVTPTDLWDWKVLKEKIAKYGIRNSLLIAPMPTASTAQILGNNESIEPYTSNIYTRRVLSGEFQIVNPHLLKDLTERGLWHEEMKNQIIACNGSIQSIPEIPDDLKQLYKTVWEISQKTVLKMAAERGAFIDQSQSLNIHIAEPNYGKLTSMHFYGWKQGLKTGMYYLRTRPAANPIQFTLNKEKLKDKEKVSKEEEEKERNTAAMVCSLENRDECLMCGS
Assay: Human RNR inhibition effect (dCDP formation from CDP)
Format: biochemical
Conditions: 10 μM CDP, 37° C. for 30 minutes, read-out: RNR inhibitory activity IC50
In short: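 His-tagged human M1 (isoform 1) and N-terminal 59-aa-truncated M2 (isoform 2), E. coli-expressed, Ni-purified, preincubated 20 min with compound (1% DMSO). Reaction with 10 μM CDP, 2 mM ATP, 0.24 mM NADPH, 6 mM DTT, 4 mM Mg acetate, 100 mM KCl, 50 mM HEPES pH 7.2, 30 min at 37° C. dCDP formed quantified by reverse-phase HPLC after heat stop.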

IC50	Compound
90 nM	COc1cc(Cl)ccc1S(=O)(=O)N[C@H](c1n[nH]c(=O)o1)[C@H](C)c1c(F)ccc(-c2cnn(C)c2)c1C [Example 306, 4-chloro-N-((1S,2R)-2-(6-fluoro-2-methyl-3-(1-methyl-1H-pyrazol-4-yl)phenyl)-1-(5-oxo-4,5-dihydro-1,3,4-oxadiazol-2-yl)propyl)-2-methoxybenzenesulfonamide]
60 nM	Cc1ccc(F)c([C@@H](C)[C@H](NS(=O)(=O)c2ccc(Cl)c3c2OCCC3(O)C(F)(F)F)c2n[nH]c(=O)o2)c1C (single isomer, unassigned) [Example 220A]
560 nM	CC(=O)N1CCOc2c(S(=O)(=O)N[C@H](c3n[nH]c(=O)o3)[C@H](C)c3cccc(C)c3C)ccc(Cl)c21 [Example 284, 4-acetyl-5-chloro-N-((1S,2R)-2-(2,3-dimethylphenyl)-1-(5-oxo-4,5-dihydro-1,3,4-oxadiazol-2-yl)propyl)-3,4-dihydro-2H-benzo[b][1,4]oxazine-8-sulfonamide]
60 nM	CNC(=O)c1nc(S(=O)(=O)N[C@H](c2n[nH]c(=O)o2)[C@H](C)c2c(F)ccc(C)c2C)ccc1Cl [Example 252, 3-chloro-6-(N-((1S,2R)-2-(6-fluoro-2,3-dimethylphenyl)-1-(5-oxo-4,5-dihydro-1,3,4-oxadiazol-2-yl)propyl)sulfamoyl)-N-methylpicolinamide]
160 nM	COc1cc(Cl)ccc1S(=O)(=O)N[C@H](c1n[nH]c(=O)o1)[C@H](C)c1c(F)ccc(-c2cn[nH]c2)c1C [Example 303, 4-chloro-N-((1S,2R)-2-(6-fluoro-2-methyl-3-(1H-pyrazol-4-yl)phenyl)-1-(5-oxo-4,5-dihydro-1,3,4-oxadiazol-2-yl)propyl)-2-methoxybenzensulfonamide]
340 nM	Cc1cccc(F)c1[C@@H](C)[C@H](NS(=O)(=O)c1ccc(Cl)cc1C(N)=O)c1n[nH]c(=O)o1 [Example 22, 5-chloro-2-(N-((1S,2R)-2-(2-fluoro-6-methylphenyl)-1-(5-oxo-4,5-dihydro-1,3,4-oxadiazol-2-yl)propyl)sulfamoyl)benzamide]
450 nM	Cc1cc(F)cc([C@@H](C)[C@H](NS(=O)(=O)c2ccc(Cl)cc2C(N)=O)c2n[nH]c(=O)o2)c1C [Example 7, 15-chloro-2-(N-((1S,2R)-2-(5-fluoro-2,3-dimethylphenyl)-1-(5-oxo-4,5-dihydro-1,3,4-oxadiazol-2-yl)propyl)sulfamoyl)benzamide]
30 nM	Cc1ccc(F)c([C@@H](C)[C@H](NS(=O)(=O)c2ccc(Cl)c(C(=O)N3CC4CCC(C3)O4)n2)c2n[nH]c(=O)o2)c1C [Example 117, 6-(8-oxa-3-azabicyclo[3.2.1]octane-3-carbonyl)-5-chloro-N-((1S,2R)-2-(6-fluoro-2,3-dimethylphenyl)-1-(5-oxo-4,5-dihydro-1,3,4-oxadiazol-2-yl)propyl)pyridine-2-sulfonamide]
230 nM	Cc1ccc(F)c([C@@H](C)[C@H](NS(=O)(=O)c2ccc(Cl)cc2-c2ccno2)c2n[nH]c(=O)o2)c1C [Example 91, 4-chloro-N-((1S,2R)-2-(6-fluoro-2,3-dimethylphenyl)-1-(5-oxo-4,5-dihydro-1,3,4-oxadiazol-2-yl)propyl)-2-(isoxazol-5-yl)benzenesulfonamide]
110 nM	COc1c(S(=O)(=O)N[C@H](c2n[nH]c(=O)o2)[C@H](C)c2c(F)ccc(C)c2C)ccc(Cl)c1C(C)(C)O [Example 212, 4-chloro-N-((1S,2R)-2-(6-fluoro-2,3-dimethylphenyl)-1-(5-oxo-4,5-dihydro-1,3,4-oxadiazol-2-yl)propyl)-3-(2-hydroxypropan-2-yl)-2-methoxybenzenesulfonamide]
840 nM	C[C@H](c1cccc2ccccc12)[C@H](NS(=O)(=O)c1ccc(Cl)cc1Cl)c1n[nH]c(=O)o1 [Example 46, 2,4-dichloro-N-((1S,2R)-2-(naphthalen-1-yl)-1-(5-oxo-4,5-dihydro-1,3,4-oxadiazol-2-yl)propyl)benzenesulfonamide]
830 nM	Cc1ccc(F)c([C@@H](C)[C@H](NS(=O)(=O)c2ccc3[nH]c(=O)[nH]c3c2)c2n[nH]c(=O)o2)c1C [Example 165, N-((1S,2R)-2-(6-fluoro-2,3-dimethylphenyl)-1-(5-oxo-4,5-dihydro-1,3,4-oxadiazol-2-yl)propyl)-2-oxo-2,3-dihydro-1H-benzo[d]imidazole-5-sulfonamide]
180 nM	Cc1ccc(F)c([C@@H](C)[C@H](NS(=O)(=O)c2ccc(Cl)c(C(=O)N3CCC4(CCC4)C3)n2)c2n[nH]c(=O)o2)c1C [Example 115, 5-chloro-N-((1S,2R)-2-(6-fluoro-2,3-dimethylphenyl)-1-(5-oxo-4,5-dihydro-1,3,4-oxadiazol-2-yl)propyl)-6-(6-azaspiro[3.4]octane-6-carbonyl)pyridine-2-sulfonamide]

Second part, the molecule before the results:

Compound	IC50
COc1cc(Cl)ccc1S(=O)(=O)N[C@H](c1n[nH]c(=O)o1)[C@H](C)c1c(F)ccc(-c2cn(C)nc2C)c1C [Example 317, 4-chloro-N-((1S,2R)-2-(3-(1,3-dimethyl-1H-pyrazol-4-yl)-6-fluoro-2-methylphenyl)-1-(5-oxo-4,5-dihydro-1,3,4-oxadiazol-2-yl)propyl)-2-methoxybenzenesulfonamide]	280 nM
Cc1cccc2cccc([C@@H](C)[C@H](NS(=O)(=O)c3ccc(Cl)c4c3OCCC4O)c3n[nH]c(=O)o3)c12 (stereo partly drawn) [Example 232, 5-chloro-4-hydroxy-N-((1S,2R)-2-(8-methylnaphthalene-1-yl)-1-(5-oxo-4,5-dihydro-1,3,4-oxadiazol-2-yl)propyl)chroman-8-sulfonamide]	230 nM
Cc1ccc(F)c([C@@H](C)[C@H](NS(=O)(=O)c2cc(C(C)(C)O)ccc2C(N)=O)c2n[nH]c(=O)o2)c1C [Example 197, 2-(N-((1S,2R)-2-(6-fluoro-2,3-dimethylphenyl)-1-(5-oxo-4,5-dihydro-1,3,4-oxadiazol-2-yl)propyl)sulfamoyl)-4-(2-hydroxypropan-2-yl)benzamide]	60 nM
Cc1ccc(F)c([C@@H](C)[C@H](NS(=O)(=O)c2ccccc2C(=O)NO)c2n[nH]c(=O)o2)c1C [Example 285, 2-(N-((1S,2R)-2-(6-fluoro-2,3-dimethylphenyl)-1-(5-oxo-4,5-dihydro-1,3,4-oxadiazol-2-yl)propyl)sulfamoyl)-N-hydroxybenzamide]	310 nM
Cc1ccc(F)c([C@@H](C)[C@H](NS(=O)(=O)c2ccc(Br)cc2C#N)c2n[nH]c(=O)o2)c1C [Example 92, 4-bromo-2-cyano-N-((1S,2R)-2-(6-fluoro-2,3-dimethylphenyl)-1-(5-oxo-4,5-dihydro-1,3,4-oxadiazol-2-yl)propyl)benzenesulfonamide]	200 nM
CC1CCc2cccc(C(C)[C@H](NS(=O)(=O)c3ccc(Br)cn3)c3n[nH]c(=O)o3)c21 (stereo partly drawn) [Example 48, 5-bromo-N-((1S)-2-(3-methyl-2,3-dihydro-1H-inden-4-yl)-1-(5-oxo-4,5-dihydro-1,3,4-oxadiazol-2-yl)propyl)pyridine-2-sulfonamide]	600 nM
COc1cc(Cl)ccc1S(=O)(=O)N[C@H](c1n[nH]c(=O)o1)[C@H](C)c1c(F)ccc(-c2cnn(C3CCC3)c2)c1C [Example 312, 4-chloro-N-((1S,2R)-2-(3-(1-cyclobutyl-1H-pyrazol-4-yl)-6-fluoro-2-methylphenyl)-1-(5-oxo-4,5-dihydro-1,3,4-oxadiazol-2-yl)propyl)-2-methoxybenzenesulfonamide]	220 nM
COc1cc(Cl)ccc1S(=O)(=O)N[C@H](c1n[nH]c(=O)o1)[C@H](C)c1c(F)ccc(-c2cnn(C3CC3)c2)c1C [Example 311, 4-chloro-N-((1S,2R)-2-(3-(1-cyclopropyl-1H-pyrazol-4-yl)-6-fluoro-2-methylphenyl)-1-(5-oxo-4,5-dihydro-1,3,4-oxadiazol-2-yl)propyl)-2-methoxybenzenesulfonamide]	220 nM
Cc1ccc(F)c([C@@H](C)[C@H](NS(=O)(=O)c2ccc(F)c(S(C)(=O)=O)c2)c2n[nH]c(=O)o2)c1C [Example 169, 4-fluoro-N-((1S,2R)-2-(6-fluoro-2,3-dimethylphenyl)-1-(5-oxo-4,5-dihydro-1,3,4-oxadiazol-2-yl)propyl)-3-(methylsulfonyl)benzenesulfonamide]	190 nM
CC(=O)OC1(C(F)(F)F)CCOc2c(S(=O)(=O)N[C@H](c3n[nH]c(=O)o3)[C@H](C)c3c(F)ccc(C)c3C)ccc(Cl)c21 (stereo partly drawn) [Example 123, 5-chloro-8-(N-((1S,2R)-2-(6-fluoro-2,3-dimethylphenyl)-1-(5-oxo-4,5-dihydro-1,3,4-oxadiazol-2-yl)propyl)sulfamoyl)-4-(trifluoromethyl)chroman-4-ylacetate]	110 nM
